In US8609695B2, “Methods of treating and/or suppressing insulin resistance” (Endorecherche, Inc., priority 1999, dated 2013):

Legend:
[1] = system: OVX Sprague-Dawley Rat; experiment: 11-month combination treatment DHEA + EM-800, body weight (Example 2); assay type: in vivo; conditions: OVX rats, 11 months
From the text: 1.1 Test Compounds: • DHEA: Available from Steraloids Inc. Wilton, N.H. Lot: H137; • EM-800 is synthesized at the UCPO Department of Lab. of Mol. Endo., CHUL.
1.2 Vehicle • a) Gelatin: Lab-Grade, ACP Chemicals Inc., Montreal, Qc. Lot# F0195 • b) Ethanol: Commercial Alcohols Inc., Brampton, Ontario. Lot No. 11296 • c) Polyethylene Glycol-600 (PEG-600): Omega Chemical Company Inc., Lévis, Quebec. Lot#: 00-0117-EZ • d) Normal Saline: 0.9% Sodium Chloride irrigation USP. Abbott Laboratories Limited, St-Laurent, Qc. • e) Propylene Glycol (1, 2-Propanediol, PPG): Sigma Chemical Co., St-Louis, Mo. • g) Vehicle 1: 4% ETOH-4% PEG-600-1% gelatin-0.9% NaCl—H2O for Subcutaneous Injection. • h) Vehicle 2: 50% ETOH-50% PPG for Topical Application.
3.1 Perapartion of Vehicle and Test Articles • a) Preparation of EM-800: • EM-800 or both of them will be dissolved in ETOH:PEG-600 (1:1) with agitation on Fisher Scientific Stirring Hot Plate, then, 1% GNS will be added to the required volume. • b) Preparation of DHEA: • DHEA is dissolved in 50% ETOH, 50% PPG by agitation.
3.2 Animal Preparation and Treatments • Animals will be treated once daily as indicated on Item 6.1. DHEA, prepared in 50% ETOH, 50% PPG, will be percutaneously applied (P.C.) to corresponding animals once daily (I.D.) in a volume of 0.5 ml. […]

[2] = system: aged Sprague-Dawley rats; conditions: reduced from 600, without affecting food intake; cited from earlier work
[3] = system: human endometrial adenocarcinoma Ishikawa cells; experiment: Alkaline phosphatase activity in Ishikawa cells (Example 11); assay type: cell-based; conditions: for Stimulation of alkaline phosphatase by tested compounds % of 1 nM E2 stimulation: Ishikawa cells, five days incubation, intrinsic estrogenic activity, hydrochloride
Experimental: The human Ishikawa cell line derived from a well differentiated endometrial adenocarcinoma was kindly provided by Dr. Erlio Gurpide, The Mount Sinai Medical Center, New York, N.Y. The Ishikawa cells were routinely maintained in Eagle's Minimum Essential Medium (MEM) containing 5% (vol/vol) FBS and supplemented with 100 U/ml penicillin, 100 μg/ml streptomycin, 0.1 mM Non-essential Amino Acids solution. Cells were plated in Falcon T75 flasks at a density of 1.5×10^6 cells at 37 C.
Twenty four hours before the start of an experiment, the medium of near confluent Ishikawa cells was replaced by fresh estrogen-free basal medium (EFBM) consisting of a 1:1 (v:v) mixture of phenol red-free Ham's F-12 and Dulbecco's Modified Eagle's Medium (DMEM) supplemented with 100 U/mL penicillin, 100 μg/mL Streptomycin, 2 mM glutamine, and 5% FBS treated twice with dextran-coated charcoal to remove endogenous steroids. Cells were then harvested by 0.1% pancreatin (Sigma) and 0.25 mM HEPES, resuspended in EFBM and plated in Falcon 96 well flat-bottomed microtiter plates at a density of 2.2×10^4 cells/well in a volume of 100 μl and allowed to adhere to the surface of the plates for 24 h. Thereafter, medium was replaced with fresh EFBM containing the indicated concentrations of compounds in a final volume of 200 μl. Cells were incubated for five days, with a medium change after 48 h.
At the end of the incubation period, microtiter plates were inverted and growth medium was decanted. The plates were rinsed with 200 μL by well of PBS (0.15M NaCl, 10 mM sodium phosphate, pH 7.4). PBS was then removed from the plates while carefully leaving some residual PBS, and the wash procedure was repeated once. The buffered saline was then decanted, and the inverted plates were blotted gently on a paper towel. Following replacement of the covers, the plates were placed at −80 C for 15 min followed by thawing at room temperature for 10 min. The plates were then placed on ice, and 50 μl of an ice-cold solution containing 5 mM p-nitrophenyl phosphate, 0.24 mM MgCl2, and 1 M diethanolamine (pH 9.8) was added. Plates were then warmed to room temperature, and the yellow color from the production of p-nitrophenyl was allowed to develop (8 min). Plates were monitored at 405 nm in an enzyme-linked immunosorbent assay plate reader (BIO-RAD, model 2550 EIA Reader).
Dose-response curves as well as IC50 values were calculated using a weighted iterative nonlinear squares regression.

[4] = system: ovariectomized female rats; experiment: Uterine weight, fat and lipid, 20-day treatment (Example 13); assay type: in vivo, Rattus norvegicus; conditions: 20 days
Experimental: The objective of this study was to compare the effect on uterine, weight, fat and blood lipids following treatment with EM-652.HCl, ERA-923 and lasofoxifene, administered alone or in combination with EM-652.HCl, to ovariectomized female rats. For this purpose, each compound was administered orally for 20 days to ovariectomized female rats and at the end of the treatment period, the uterus and fat were collected and weighed.
d) Diet: • Certified Rodent feed (Lab Diet #5002, pellets) and tap water were provided ad libitum. Randomization:
Seventy rats were separated into 7 groups of 9 to 11 animals for conduct of the study outlined below:
Animals from groups 2 to 9 were ovariectomized under Isoflurane-induced anesthesia on Day 7 of the study.
The vehicle or tested compounds were given as suspension in 0.4% methylcellulose by oral gavage (0.5 ml/gavage/rat) from Day 2 to Day 21 of the study.
Rats were weighed on Study Day 1 and at the necropsy (SD 22).
Approximately 24 hours after the last dosing, overnight fasted rats under Isoflurane-induced anesthesia were killed by exsanguination at the abdominal aorta.
Uteri and retroperitonal adipose tissue were removed and weighed.

[5] = OVX rats, commercial rodent diet, 0.5 mg oral, EM-652.HCl 2.5 mg in combinations

Row | SMILES | inhibition of the OVX stimulation of body weight ([1]; DHEA 12.5 mg daily, EM-800 daily) | Total weight ([1]; DHEA 12.5 mg/day/rat percutaneous, EM-800 100 μg/day/rat s.c.) | body weight [2] | IC50 ([3]; Homo sapiens, Ishikawa, 120 h, read-out: Inhibition of 1 nM E2 stimulation of alkaline phosphatase by tested compounds IC50) | Stimulation of alkaline phosphatase by tested compounds % of 1 nM E2 stimulation [3] | Stimulation of alkaline phosphatase by tested compounds % of 1 nM E2 stimulation ([3]; listed as EM-652•HCl) | OVX-induced increase in total serum cholesterol levels ([4]; 0.5 mg) | prevention of body weight increase induced by ovariectomy ([4]; OVX rats, 0.5 mg) | Cholesterol [4, 5] | Final Body Weight [4, 5]
1 | C[C@]12CC[C@H](O)CC1=CC[C@@H]1[C@@H]2CC[C@]2(C)C(=O)CC[C@@H]12 [DHEA, dehydroepiandrosterone] | 87% | 490.8 ± 24.1 g | 550 g | – | – | – | – | – | – | –
2 | CC1=C(c2ccc(O)cc2)[C@H](c2ccc(OCCN3CCCCC3)cc2)Oc2cc(O)ccc21.Cl [EM-652.HCl, (S)-(+)-7-hydroxy-3-(4′-hydroxyphenyl)-4-methyl-2-(4″-(2′″-piperidino-ethoxy)phenyl)-2H-1-benxopyran hydrochloride] | – | – | – | 1.52 ± 0.22 nM | do not show significant estrogenic activity | 1.88 ± 0.26 (22) % of 1 nM E2 stimulation | completely prevented | 64% | 1.00 ± 0.11 mmol/L | 238 ± 4 g
